The source of these data is patent publication US20260207718A1, “METHODS FOR TREATING LATE ONSET POMPE DISEASE IN PEDIATRIC PATIENTS” (Amicus Therapeutics, Inc., priority 2022, published 2026).

Data set [1] deals with CIMPR (Homo sapiens, UniProt P11717). In words: CIMPR affinity chromatography (bound vs unbound rhGAA by GAA activity). The data set is classed as binding. The source says:
Multiple batches of the rhGAA according to the disclosure were produced in shake flasks and in perfusion bioreactors using CHO cell line GA-ATB200, the product of which is referred to as “ATB200.” Weak anion exchange (“WAX”) liquid chromatography was used to fractionate ATB200 rhGAA according to terminal phosphate and sialic acid. Elution profiles were generated by eluting the ERT with increasing amount of salt. The profiles were monitored by UV (A280 nm).
To evaluate the ability of the conventional rhGAAs in MYOZYME® and LUMIZYME® to interact with the CIMPR, the two conventional rhGAA preparations were injected onto a CIMPR affinity column (which binds rhGAA having M6P groups) and the flow through collected. The bound material was eluted with a free M6 gradient. Fractions were collected in 96-well plate and GAA activity assayed by 4MU-α-glucosidase substrate. The relative amounts of unbound (flow through) and bound (M6P eluted) rhGAA were determined based on GAA activity and reported as the fraction of total enzyme. […] Indeed, only 27% of the rhGAA in MYOZYME® and 22% of the rhGAA in LUMIZYME® contained M6P that can be productive to target it to the CIMPR on muscle cells.

Data set [2] deals with Gaa KO mice. In words: Single fiber analysis (LAMP1/LC3) of muscle fibers from Gaa KO mice. It is filed as in vivo. The source says: FIG. 17 depicts co-immunofluorescent staining of LAMP1 (green) (see for example, “B”) and LC3 (red) (see, for example, “A”) in single fibers isolated from the white gastrocnemius of Gaa KO mice treated with a vehicle, alglucosidase alfa, or ATB200. “C” depicts clearance of autophagic debris and absence of enlarged lysosome. A minimum of 30 fibers were examined from each animal.
As a result, a significant portion of muscle fibers analyzed (36-60%) from ATB200-treated mice appeared normal or near-normal.

In data set [3] the test system is pediatric LOPD patient. The note with it: (failed); 20 mg/kg Q2W (M).
In data set [4] the test system is Gaa KO mice. In words: Co-administration of ATB200 and miglustat in Gaa KO mice (tissue glycogen, LAMP1, LC3, dysferlin). The settings on record: FIG. 15B. The data set is classed as in vivo. The procedure:
The therapeutic effects of ATB200 and miglustat were evaluated and compared against those of Alglucosidase alfa in Gaa KO mice. For the study, male Gaa KO (3- to 4-month old) and age-matched wild-type (WT) mice were used. Alglucosidase alfa was administered via bolus tail vein intravenous (IV) injection. In the co-administration regimen, miglustat was administered via oral gavage (PO) 30 minutes prior to the IV injection of ATB200. Treatment was given biweekly. Treated mice were sacrificed after 14 days from the last administration and various tissues were collected for further analysis. Table 11 summarizes the study design:
Tissue glycogen content in tissues samples was determined using amyloglucosidase digestion, as discussed above.
Tissue samples were also analyzed for biomarker changes following the methods discussed in: Khanna R, et al. (2012), “The pharmacological chaperone AT2220 increases recombinant human acid α-glucosidase uptake and glycogen reduction in a mouse model of Pompe disease,” Plos One 7(7): e40776; and Khanna, R et al. (2014), “The Pharmacological Chaperone AT2220 Increases the Specific Activity and Lysosomal Delivery of Mutant Acid α-Glucosidase, and Promotes Glycogen Reduction in a Transgenic Mouse Model of Pompe Disease,” PLOS ONE 9(7): e102092.

Data set [5] concerns LOPD population (ERT-naïve and ERT-experienced). In words: Indirect treatment comparison, multi-level network meta regression (ML-NMR). More on the design: species or system human. The settings on record: base-case scenario, sensitivity analysis (RCT data only). The procedure: Moreover, a comparison of three randomized clinical trials (LOTS: alglucosidase alfa vs placebo; COMET: avalglucosidase alfa vs alglucosidase alfa; and PROPEL: cipaglucosidase alfa/miglustat vs alglucosidase alfa) share 6 MWD and % predicted FVC as key primary or secondary endpoints. Using patient-level data from the PROPEL randomized clinical trial (RCT) plus aggregate published data from other RCTs, Phase I/II and open label extension trials, a multi-level network meta-regression was conducted, adjusting for various baseline covariates including previous ERT duration. The base case scenario had covariates resembling the PROPEL population (naïve and ERT-experienced) and analyzed 6 MWD and FVC change from baseline at 52 weeks. […]
A systematic literature review (SLR) was conducted to identify relevant published clinical studies of ERTs in LOPD. Outcomes assessed were change from baseline in 6-minute walking distance (6 MWD) (m) and in forced vital capacity (FVC; % predicted) at week 52, acknowledged by clinicians, HTA agencies and payers as key LOPD trial endpoints. […]
A base-case scenario was evaluated in which all covariates were set to the target population of the PROPEL trial. […]

In data set [6] the test system is adult subjects with late-onset Pompe disease (LOPD). The note with it: in vivo.
Excerpt: (§1) Efficacy assessments (i.e., functional assessments) included evaluation of ambulatory function (6 MWT), motor function tests (Gait, Stair, Gower, and Chair maneuver (GSGC) test and Timed Up and Go (TUG) test), muscle strength (manual muscle testing and quantitative muscle testing), and pulmonary function tests (FVC, SVC, MIP, MEP, and SNIP).
(§2) The primary efficacy endpoint was the change from baseline to Week 52 in 6 MWD.
(§3) Key secondary efficacy endpoints in a pre-specified hierarchical order of importance were as follows. These secondary endpoints were analyzed using analysis of covariance (ANCOVA) model with last observation carried forward (ITT LOCF). • change from baseline to Week 52 in sitting FVC (% predicted) • change from baseline to Week 52 in the manual muscle test score for the lower extremities • change from baseline to Week 52 in the total score for the PROMIS—physical function • change from baseline to Week 52 in the total score for the PROMIS—fatigue • change from baseline to Week 52 in GSGC total score
(§4) PROPEL was a 52-week, double-blind randomized global study designed to assess the efficacy, safety and tolerability of AT-GAA compared to the current standard of care, alglucosidase alfa, an enzyme replacement therapy (ERT).
(§5) Patients enrolled in PROPEL were randomized 2:1 so that for every two patients randomized to be treated with AT-GAA, one was randomized to be treated with alglucosidase alfa.
Data set [7] concerns subjects with late-onset Pompe disease (LOPD). The note with it: cited from earlier work.
The subject of data set [8] is adult subjects with late-onset Pompe disease (LOPD). In words: ATB200-03 (PROPEL) phase 3 trial. The note with it: for absolute decline in percent-predicted FVC: 52 weeks; for mean change in total GSGC score: baseline to week 52, overall population.
Excerpt: as §1, §2, §3, §4, §5

Sequence of CIMPR (P11717 41-2491, species assumed): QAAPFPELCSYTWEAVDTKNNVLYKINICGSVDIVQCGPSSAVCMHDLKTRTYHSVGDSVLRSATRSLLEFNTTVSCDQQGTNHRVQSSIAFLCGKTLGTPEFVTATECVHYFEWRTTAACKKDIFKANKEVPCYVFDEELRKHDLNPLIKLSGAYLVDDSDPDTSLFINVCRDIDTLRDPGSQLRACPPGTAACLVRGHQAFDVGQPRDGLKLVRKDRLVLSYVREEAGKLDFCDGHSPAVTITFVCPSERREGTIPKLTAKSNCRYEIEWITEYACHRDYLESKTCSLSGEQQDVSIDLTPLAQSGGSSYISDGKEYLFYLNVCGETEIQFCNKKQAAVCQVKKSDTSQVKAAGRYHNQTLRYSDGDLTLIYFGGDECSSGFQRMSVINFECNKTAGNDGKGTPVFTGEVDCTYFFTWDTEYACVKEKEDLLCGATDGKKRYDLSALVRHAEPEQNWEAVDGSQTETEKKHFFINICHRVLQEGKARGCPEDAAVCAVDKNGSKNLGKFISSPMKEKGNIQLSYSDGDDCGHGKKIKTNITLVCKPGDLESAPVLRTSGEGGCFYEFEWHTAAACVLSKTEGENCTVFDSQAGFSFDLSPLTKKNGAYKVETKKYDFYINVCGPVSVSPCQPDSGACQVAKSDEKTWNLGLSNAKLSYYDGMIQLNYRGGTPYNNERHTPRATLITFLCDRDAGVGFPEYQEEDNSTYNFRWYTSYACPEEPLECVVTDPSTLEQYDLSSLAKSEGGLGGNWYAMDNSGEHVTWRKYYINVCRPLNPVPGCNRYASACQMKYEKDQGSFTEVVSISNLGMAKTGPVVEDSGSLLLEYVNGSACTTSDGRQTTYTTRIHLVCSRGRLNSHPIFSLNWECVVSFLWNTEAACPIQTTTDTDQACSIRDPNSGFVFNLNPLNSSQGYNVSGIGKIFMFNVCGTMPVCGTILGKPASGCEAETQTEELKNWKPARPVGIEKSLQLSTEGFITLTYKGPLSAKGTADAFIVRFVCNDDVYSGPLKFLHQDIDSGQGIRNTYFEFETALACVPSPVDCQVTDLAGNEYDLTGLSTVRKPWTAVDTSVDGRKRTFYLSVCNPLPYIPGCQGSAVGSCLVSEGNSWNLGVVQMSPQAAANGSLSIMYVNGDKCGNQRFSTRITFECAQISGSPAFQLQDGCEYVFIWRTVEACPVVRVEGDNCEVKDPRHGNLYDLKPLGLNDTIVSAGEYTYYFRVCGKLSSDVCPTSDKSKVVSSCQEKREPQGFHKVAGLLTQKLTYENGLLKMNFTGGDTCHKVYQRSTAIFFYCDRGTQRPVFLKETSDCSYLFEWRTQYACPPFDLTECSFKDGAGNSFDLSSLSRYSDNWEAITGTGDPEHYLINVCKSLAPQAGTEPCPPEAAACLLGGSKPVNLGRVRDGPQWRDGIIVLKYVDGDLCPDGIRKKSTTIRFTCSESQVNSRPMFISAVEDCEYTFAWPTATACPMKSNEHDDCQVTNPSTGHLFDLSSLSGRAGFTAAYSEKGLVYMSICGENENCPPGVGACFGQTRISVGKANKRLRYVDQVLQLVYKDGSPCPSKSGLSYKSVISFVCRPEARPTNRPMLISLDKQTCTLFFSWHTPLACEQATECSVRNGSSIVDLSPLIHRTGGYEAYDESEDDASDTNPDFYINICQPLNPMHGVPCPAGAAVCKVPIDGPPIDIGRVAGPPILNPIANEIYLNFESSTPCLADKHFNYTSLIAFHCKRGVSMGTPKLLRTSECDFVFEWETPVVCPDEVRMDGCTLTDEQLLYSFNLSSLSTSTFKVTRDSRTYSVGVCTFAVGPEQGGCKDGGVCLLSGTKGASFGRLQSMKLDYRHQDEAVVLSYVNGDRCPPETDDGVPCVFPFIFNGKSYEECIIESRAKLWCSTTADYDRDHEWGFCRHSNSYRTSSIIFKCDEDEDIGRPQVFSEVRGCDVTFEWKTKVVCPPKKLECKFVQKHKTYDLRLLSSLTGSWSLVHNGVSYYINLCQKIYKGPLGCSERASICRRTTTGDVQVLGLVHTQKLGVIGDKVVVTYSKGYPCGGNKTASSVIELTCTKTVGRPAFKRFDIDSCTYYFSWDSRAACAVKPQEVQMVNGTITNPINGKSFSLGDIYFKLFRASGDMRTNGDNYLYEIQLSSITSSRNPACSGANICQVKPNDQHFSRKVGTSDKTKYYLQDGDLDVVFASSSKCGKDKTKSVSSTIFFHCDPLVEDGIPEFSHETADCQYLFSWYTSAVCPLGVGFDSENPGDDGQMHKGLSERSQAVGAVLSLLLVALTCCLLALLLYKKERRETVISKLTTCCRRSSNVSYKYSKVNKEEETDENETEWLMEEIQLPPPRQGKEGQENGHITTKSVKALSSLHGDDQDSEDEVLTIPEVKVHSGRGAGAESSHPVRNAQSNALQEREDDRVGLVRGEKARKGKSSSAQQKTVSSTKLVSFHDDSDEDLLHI

“MYOZYME®: conventional rhGAA product containing alglucosidase alfa (Sanofi Genzyme)”: in data set [1], the “rhGAA that bound to the CIMPR” value stood at 27% and the “rhGAA that did not bind to the CIMPR (fraction of total enzyme)” value is given as 73%. For the same substance, the “lysosome size and autophagic buildup compared to vehicle-treated mice” value in data set [2] (FIG. 17) is listed as “did not show any significant difference”. The 6MWT in data set [3] is 44.2 m.

As to alglucosidase alfa, the “LC3 II level (western blot) / effect on autophagy” value in data set [4] is “modest”. Further, the “Fibers with Autophagy Buildup” value in data set [2] is listed as more than 90%. The “Fibers with Normal or Near-normal Appearance” value in data set [2] is given as less than 10%. In data set [5], the “relative effect for 6MWT and FVC” value is “numerically favourable versus placebo”. Also, the “participants with infusion/injection associated reactions (IARs)” value in data set [6] was 26%. Besides, the “patients who discontinued treatment due to an adverse event” value in data set [6] is recorded as 2.6%. In data set [7] (368 subjects with LOPD from published studies), the “subjects who did not show an initial improvement during treatment” value is more than 30%. Besides, the “duration of improvements in initial responders” value in data set [7] (longer-term studies) is listed as “approximately 2 years”. Also, the “absolute decline in percent-predicted FVC” value in data set [8] (ERT switch patients) and in data set [8] (combined population) was 4.0% in each case. Also, the “FVC, CFBL at Week 52” value in data set [8] (ERT switch population) is −4.0 % predicted; in data set [8] (ERT treatment naive population), −3.6 % predicted; in data set [8] (overall population) it was −4.0 % predicted. Moreover, the “6MWD, CFBL at Week 52” value in data set [8] (ERT switch population (n=95)) is 0.0 m; in data set [8] (ERT treatment naive population), 38 m; in data set [8] (ERT treatment naive population, listed as Alglucosidase alfa), “+38.3 m”; in data set [8] (overall ERT switch and ERT naïve population), 7 m; in data set [8] (overall ERT switch and ERT naïve population, listed as Alglucosidase alfa) it was “+7.2 m”. The “mean urinary Glc4 concentration” value in data set [8] (ERT-experienced patients, Week 52 (baseline 4.6 ATB200/miglustat, 7.2 alglucosidase alfa with placebo)) came to 9.1 mmol/mol. The “mean change in CK (creatine kinase)” value in data set [8] (after 52 weeks) was “+15.6%”. Further, the “mean change (SD) in MMT score for lower extremities” value in data set [8] (baseline to week 52) was 0.9 (2.58). Besides, the “mean change in total GSGC score” value in data set [8] was “worsening”; in data set [8] (listed as alglucosidase alfa and placebo), 0.77 (1.8). Moreover, the “mean change of urine Hex-4” value in data set [8] (combined population, after 52 weeks) is “+11.0%”.
